According to US6339101B1, “N-linked sulfonamides of N-heterocyclic carboxylic acids or isosteres for vision and memory disorders” (GPI NIL Holdings, Inc., priority 1998, dated 2002):

Legend:
[1] = system: retinal ganglion cell axons; experiment: Protection of retinal ganglion cell axons from degeneration following optic nerve transection (Table V); type: in vivo; details: ± SEM
Text: Efficacy of representative compounds from different immunophilin ligand series in protecting retinal ganglion cell axons from degeneration following optic nerve transection is set forth in Table V.

[2] = target: FKBP12 (Homo sapiens, UniProt P62942); experiment: Ki test: inhibition of peptidyl-prolyl isomerase (rotamase) activity of FKBP; type: biochemical; details: apparent Ki; read-out: Ki rotomase
Text: The inhibition of the prolyl peptidyl cis-trans isomerase activity of FKBP may be measured as an indicator of this affinity.
These values are obtained as apparent Ki's.
The cis-trans isomerization of an alanine-proline bond in a model substrate, N-succinyl-Ala-Ala-Pro-Phe-p-nitroanilide, is monitored spectrophotometrically in a chymotrypsin-coupled assay, which releases para-nitroanilide from the trans form of the substrate. The inhibition of this reaction caused by the addition of different concentrations of inhibitor is determined, and the data is analyzed as a change in first-order rate constant as a function of inhibitor concentration to yield the apparent Ki values.
In a plastic cuvette are added 950 ml of ice cold assay buffer (25 mM HEPES, pH 7.8, 100 nM NaCl), 10 ml of FKBP (2.5 mM in 10 mM Tris-Cl pH 7.5, 100 mM NaCl, 1 mM dithiothreitol), 25 ml of chymotrypsin (50 mg/ml in 1 mM HCl) and 10 ml of test compound at various concentrations in dimethyl sulfoxide. The reaction is initiated by the addition of 5 ml of substrate (succinyl-Ala-Phe-Pro-Phe-para-nitroanilide, 5 mg/ml in 2.35 mM LiCl in trifluoroethanol).
The absorbance at 390 nm versus time is monitored for 90 seconds using a spectrophotometer and the rate constants are determined from the absorbance versus time data files.

[3] = Clearance (Table V comments); type: in vitro ADME
[4] = Morris watermaze spatial learning and memory in aged rodents; type: in vivo, C57BL/6N-Nia mice; details: aged impaired mice, 10 mg/kg daily, after 3 weeks of dosing; vs young mice
Text: The Morris watermaze is widely used for assessing spatial memory formation and retention in experimental animals. The test depends on the animal's ability to utilize spatial visual information in order to locate a submerged escape platform in a water tank. It is important that the tank itself be as devoid of specific visual features as possible—thus, it is always circular in shape, the sides are kept smooth and in uniform dull colors, and the water is rendered opaque with nontoxic watercolor pigment or powdered milk. This is to ensure that the animal navigates only by the use of more distant visual cues, or by the use of intra-maze cues specifically provided by the experimenter.
The animals' path, speed, and swim time are tracked with a ceiling camera for later computerized analysis. Over the course of several successive trials, spatial learning can therefore be defined as a drop of distance swum, or time elapsed, from placement in the tank until escape onto the invisible platform. […]
Retention testing began after 3 weeks of dosing using the same methods as the acquisition phase. Swim Distances (cm) were analyzed in a 7×5 ANOVA including Groups and Blocks (1-5) as factors in the analysis, treating Blocks as a repeated measure.

[5] = system: retina; experiment: Streptozotocin induced diabetes, retinal neovascularization and neuron loss; type: in vivo; details: 28 day treatment beginning 8 weeks after onset of streptozotocin diabetes
[6] = system: retinal ganglion cells and optic nerve axons; experiment: In vivo retinal ganglion cell and optic nerve axon tests after optic nerve transection (Table 1); parameters: species or system Sprague Dawley rats; details: 90 days after optic nerve transection
Text: All eyes and optic nerve stumps were removed.

[7] = system: retinal ganglion cells; experiment: Example 18: optic nerve transection, ganglion cell survival and axonal dying back; type: in vivo, Sprague Dawley rats; details: 10 mg/kg/day s.c. for 28 days; 90 days after transection
Text: Transection of the mammalian optic nerve results in a brief period of abortive regeneration, but the majority of axotomized neurons die and the axons from many persisting ganglion cells die back beyond the optic nerve head.

[8] = system: retinal ganglion cells, optic nerve axons and myelin; experiment: Retinal ischemia by raised intraocular pressure; type: in vivo, rats; details: 28 days after 1 hour retinal ischemia
Text: Retinal ganglion cells were retrogradely labeled in adult rats by bilateral injection of fluorogold in their lateral geniculate nuclei. Labeled ganglion cells in the normal rat retina appear as white profiles against the dark background (FIG. 1A). Complete retinal ischemia was produced by infusing normal saline solution into the retinal vitreous cavity of each eye until the intraocular pressure exceeded arterial blood pressure. 28 days after the ischemic episode extensive degeneration of retinal ganglion cell was evidenced by massive reduction in the density of fluorogold labeled cells (FIG. 1B).
Optic nerves from vehicle treated cases examined 28 days after a 1 hour retinal ischemia episode are characterized by a decreased density of optic nerve axons and the appearance of numerous degenerating myelin figures (bright white filled circles).

Chain of FKBP12 (P62942 whole entry, species assumed): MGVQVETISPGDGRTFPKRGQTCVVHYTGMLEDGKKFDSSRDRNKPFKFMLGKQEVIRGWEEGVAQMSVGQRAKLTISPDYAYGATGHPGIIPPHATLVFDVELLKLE

In the case of CCC(C)(C)C(=O)C(=O)N1CCC[C@H]1C(=O)SCCC(c1ccccc1)c1ccccc1 [M], the “RT-RGC azon density 11 days after ON Transection ( axon rescued)” value (from here on “RT-RGC azon density 11 days”) [1] is reported as −6.3% +3.9% SEM.
With CCC(C)(C)C(=O)C(=O)N1CCCC[C@H]1C(=O)O [G] the “RT-RGC azon density 11 days” value [1] was 34.0% ±4.8% SEM.
In the case of CCC(C)(C)C(=O)C(=O)N1CCCC[C@H]1C(=O)SCCC(c1ccccc1)c1ccccc1 [K], the “RT-RGC azon density 11 days” value [1] is reported as 13.0% ±4.2% SEM.
For CCC(C)(C)C(=O)C(=O)N1CCC[C@H]1C(=O)CCCCc1cccnc1 [J], the “RT-RGC azon density 11 days” value [1] was 15.8% ±4.8% SEM.
For CCC(C)(C)C(=O)C(=O)N1CCCC[C@H]1C(=O)SC(CCc1ccccc1)CCc1ccccc1 [E], the “RT-RGC azon density 11 days” value [1] was 56.6% ±9.4% SEM, the Ki [2] was 20 nM and the Clearance [3] was 41.8 µL/min.
In the case of CCC(C)(C)C(=O)C(=O)N1CCC[C@H]1C(=O)OCCCc1cccnc1 [GPI 1046], the “difference between young and aged impaired GPI-1046 treated groups, retention phase” value [4] is reported as “no longer any statistically significant difference”, the “RT-RGC azon density 11 days” value [1] is reported as 60.5% ±3.9 SEM and the “loss of neurons in INL and GCL” value [5] is reported as “appeared to decrease the loss of neurons”. The “neovascularization in PR, ONL, OPL and INL of retina” value [5] was “reduced neovascularization”, the “neuronal loss in the ONL” value [5] was “did not appear to protect” and the “RGC Counts (mean density + SEM of Fluoro-gold labeled retinal ganglion cells in 400 μm × 400 μm gridfields)” value ([6]; 10 mg/kg/day sc for 28 days) was 67.9 ± 5.8. The “increased ON axon density (adjusted for optic nerve diameter)” value ([6]; 14 days treatment) was 1.5X, the “increased ON axon density (adjusted for optic nerve diameter)” value ([6]; 28 days treatment) was 5.0X and the Ki [2] was 7.5 nM. The “ganglion cell population spared” value [7] was 25%, the “preservation of axons of protected neurons in proximal stump” value [7] was “preserved the axons of virtually all protected neurons” and the “protection of optic nerve axons from degeneration” value [8] was “protected the majority of optic nerve axons from degeneration”.
With CCC(C)(C)C(=O)C(=O)N1CCS[C@H]1C(=O)OCCCc1cccnc1 [F] the “RT-RGC azon density 11 days” value [1] was 55.1% ±5.9% SEM.
In the case of CCC(C)(C)C(=O)C(=O)N1CCCC[C@H]1C(N)=O [H], the “RT-RGC azon density 11 days” value [1] is reported as 30.3% ±8.0% SEM.
In the case of CCC(C)(C)C(=O)C(=O)N1CCC[C@H]1C(=O)O [L], the “RT-RGC azon density 11 days” value [1] is reported as 7.8% ±3.0% SEM.
For O=C(SCCCc1ccccc1)[C@@H]1CCCN1S(=O)(=O)Cc1ccccc1 [C], the “RT-RGC azon density 11 days” value [1] was 60.4% ±3.1% SEM.
For O=C(SCCCc1ccccc1)C1CCCN1C(=O)NC12CC3CC(CC(C3)C1)C2 (stereo not shown) [B], the “RT-RGC azon density 11 days” value [1] was 100.0% ±5.2% SEM.
With O=C(OCCCCc1ccccc1)[C@@H]1CCCCN1S(=O)(=O)Cc1ccccc1 [D] the “RT-RGC azon density 11 days” value [1] was 58.4% ±6.4% SEM.
